Assay results published in patent US20240285653A1, “COMPOSITIONS AND METHODS FOR TREATMENT AND PREVENTION OF DISEASES UTILIZING TIRILAZAD SALTS” (priority 2022, published 2024).
Where two headings read alike, the source gives them in different places.

Test system: explant tissue from the dermoepidermal junction of the hoof
Type: cell-based
Description: An in vitro study was conducted to analyze the protective effects of tirilazad mesylate on cellular degeneration as a result of Bothrops alternatus snake venom as a model for laminitis. Explant tissue samples were obtained from the dermoepidermal junction of the hoof of the right forelimb under nervous system block without the need for euthanasia.
Under sterile conditions, laminar cuts (mini-explants) were made of each explant and the tissue washed with physiological solution. The mini-explants were pre-incubated for 5 hours with tirilazad and then for 24 hours with Bothrops venom. Culture medium was as follows: Dulbecco's […] (DMEM, GIBCO-Invitrogen) with 10% heat-inactivated fetal bovine serum (FBS, GIBCO-Invitrogen), L-Glutamine (29.2 mg/mL), Penicillin (10,000 units/mL), and Streptomycin (10,000 μg/mL, GIBCO-Invitrogen) as antibiotics.
Histopathology: Tissues were processed with classical histological techniques, e.g., cutting by microtome (Minot) and stained with hematoxylin-eosin (H-E) and Periodic Acid Schiff (PAS) stains.

[1] = Tirilazad 1 μM (5 hours pre-incubation) + venom 75 μg/ml (24 hours), listed as tirilazad
[2] = Tirilazad 1 μM alone, no venom, listed as tirilazad
[3] = Tirilazad 3 μM (5 hours pre-incubation) + venom 75 μg/ml (24 hours)
[4] = Tirilazad 3 μM alone, no venom, listed as tirilazad
[5] = Tirilazad 10 μM (5 hours pre-incubation) + venom 75 μg/ml (24 hours), listed as tirilazad
[6] = Tirilazad 10 μM alone, no venom
[7] = Tirilazad 10 μM alone, no venom, listed as tirilazad
[8] = Tirilazad 20 μM (5 hours pre-incubation) + venom 75 μg/ml (24 hours)
[9] = Tirilazad 20 μM alone, no venom

## C[C@@H]1C[C@H]2[C@@H]3CCC4=CC(=O)C=C[C@]4(C)C3=CC[C@]2(C)[C@H]1C(=O)CN1CCN(c2cc(N3CCCC3)nc(N3CCCC3)n2)CC1 [Tirilazad, 16α-methyl-21-[4-[2,6-bis(1-pyrrolidinyl)-4-pyrimidinyl]-1-piperazinyl]pregna-1,4,9(11)-triene-3,20-dione]
Tirilazad 1 μM (5 hours pre-incubation) + venom 75 μg/ml (24 hours)
  Separation of Basement Membrane: No
[1]
  Cell Nuclei: intense presence of altered epidermal cells
  Pyknosis or Karyopyknosis: nuclear pyknosis
  Separation of Basement Membrane: did not show separation of the basement membrane
Tirilazad 1 μM alone, no venom
  Pyknosis or Karyopyknosis: No
  Separation of Basement Membrane: No
[2]
  Cell Nuclei: epidermal cells were normal and showed preserved cytoplasmic and nuclear structure
  Separation of Basement Membrane: did not show separation of the basement membrane
[3]
  Cell Nuclei: intense presence of altered epidermal cells
  Pyknosis or Karyopyknosis: nuclear pyknosis predominating
  Separation of Basement Membrane: slight separation of the basement membrane
Tirilazad 3 μM alone, no venom
  Separation of Basement Membrane: No
[4]
  Cell Nuclei: slight epidermal cytoplasmic and nuclear alteration
  Separation of Basement Membrane: did not show separation of the basement membrane
Tirilazad 10 μM (5 hours pre-incubation) + venom 75 μg/ml (24 hours)
  Separation of Basement Membrane: No
[5]
  Cell Nuclei: Moderate presence of altered epidermal cells
  Pyknosis or Karyopyknosis: moderate nuclear pyknosis
  Separation of Basement Membrane: did not show separation of the basement membrane
[6]
  Pyknosis or Karyopyknosis: No
  Separation of Basement Membrane: No
[7]
  Cell Nuclei: epidermal cells were normal and showed preserved cytoplasmic and nuclear structure
  Separation of Basement Membrane: did not show separation of the basement membrane
[8]
  Cell Nuclei: intense presence of altered epidermal cells
  Pyknosis or Karyopyknosis: intense nuclear pyknosis
  Separation of Basement Membrane: intense separation of the basement membrane
[9]
  Cell Nuclei: epidermal cells were normal and showed preserved cytoplasmic and nuclear structure
  Pyknosis or Karyopyknosis: No
  Separation of Basement Membrane: intense separation of the basement membrane
Summary of the explant study
  Effect on cellular structure in hoof tissue (overall conclusion): provides a protective and/or therapeutic effect on cellular structure in hoof tissue
